In patent US7732485B2, “Treatment of cancer” (The University of Manchester, priority 2003, dated 2010):

Columns and labels:
[1] = system: A2780mcp1; assay: Comet assay, DNA crosslinking; format: cell-based, human; conditions: ratio >1 = more cross-linking in parental than in platinum-resistant line
Protocol: (§1) Preliminary studies have been carried out to investigate the mechanism underlying this increased sensitivity. These studies were carried out using the Comet assay (described in Appendix C), which measures damage to DNA. The results are shown in FIGS. 1 (cisplatinum), 2 (carboplatinum), 3 to 8 (compounds A-F) and 9 (phenylgoldtriphenylphospine, PAuP).
(§2) Table 3 illustrates the results of the following calculation using the DNA cross-linking results obtained in the Comet assays:
(§3) DNA damage was measured by the single cell gel electrophoresis (SCGE) assay or “Comet assay”, originally developed by Ostling and Johnson^8. This is a method for determining the extent of DNA damage and repair capacity within individual cells.^9-11 It has previously been shown that this technique can be used to investigate the mechanism of action of different DNA damaging agents.^12
(§4) Cells were trypsinised, suspended in 0.5 ml of ice cold fresh medium and transferred into plastic 24-well dishes prior to embedding in agarose. For the cross-linking studies treated and control samples were chilled on ice (to prevent any repair of DNA damage) and irradiated to a dose of 20 Gy in a Caesium-137 source (0.4 Gy/min). Control, (unirradiated, non-drug treated cells) were maintained on ice in the same manner as treated samples.
(§5) Glass microscope slides, frosted at one end, were pre-coated with 1% normal agarose in distilled water. These slides were allowed to air dry overnight prior to use. A 1% low melting point agarose (LMP) mixture in PBS was melted and held at 45° C. 1 ml of LMP was then added to 0.5 ml of cell suspension on ice and the resultant mixture was pipetted onto a pre-coated glass microscope slide and allowed to set for 1-2 minutes before being transferred to an ice tray. The slides were immersed in ice cold lysis solution (100 mM EDTA, 10 mM Tris-HCl, 1% Triton ×100, 1% DMSO, 2.5M NaCl) for 1 hr, and washed three times by immersion in fresh double distilled water for 15 minutes.
(§6) Slides were then placed onto a flat bed electrophoresis tank and covered (5-6 mm) with alkali unwinding solution (50 mM NaOH, 1 mM EDTA buffered to pH 12.5) and left under subdued lighting for 45 minutes to allow the DNA to unwind before being subjected to electrophoresis at 0.6V/cm for 25 minutes. Each slide was rinsed with 2×1 ml of 0.4M Tris-HCl, pH 8.0 and allowed to dry in air. The dried slides were then rehydrated for 20 minutes with double distilled water, 2×1 ml of propidium iodide solution (2.5 μg/ml) was added and staining was allowed to proceed for 15 minutes. Slides were then immersed in 1 litre of double distilled water for 1 hour to reduce excess background staining. The slides were cover slipped and then examined at 250× magnification under an epifluorescent microscope (Zeiss-Jenamed) using green light from a 50 watt mercury source with a 580 nm reflector and a 590 nm barrier filter set. Images were captured using an attached Sony HAD-1 interline CCD camera and Komet software analysis package (Kinetic Imaging). Twenty-five images from each of two duplicate slides were captured and analysed and the individual “comet moments” as defined by Olive et al^13, were calculated. The total fluorescence of the image represents the amount of DNA present and the length of the image, measured in pixels, represents the length of migration of the DNA. The head and tail areas of the image were identified and the intensity of each was determined. The tail moment is calculated by multiplying the fraction of DNA present in the tail by half the length of the tail.

[2] = system: ccu24; assay: Comet assay, DNA crosslinking; format: cell-based, human; conditions: ratio >1 = more cross-linking in parental than in platinum-resistant line
Protocol: as §1, §2, §3, §4, §5, §6

[3] = system: A2780carb; assay: Comet assay, DNA crosslinking; format: cell-based, human; conditions: ratio >1 = more cross-linking in parental than in platinum-resistant line
Protocol: as §1, §2, §3, §4, §5, §6

[4] = system: A2780/mcp8; assay: Comet assay, DNA crosslinking; format: cell-based, human; conditions: ratio >1 = more cross-linking in parental than in platinum-resistant line
Protocol: as §1, §2, §3, §4, §5, §6

[5] = system: A2780cis; assay: Comet assay, DNA crosslinking; format: cell-based, human; conditions: ratio >1 = more cross-linking in parental than in platinum-resistant line
Protocol: as §1, §2, §3, §4, §5, §6

[6] = system: cor123; assay: Comet assay, DNA crosslinking; format: cell-based, human; conditions: ratio >1 = more cross-linking in parental than in platinum-resistant line
Protocol: as §1, §2, §3, §4, §5, §6

[7] = system: L1210; assay: Comet assay, DNA crosslinking; format: cell-based, murine; conditions: ratio >1 = more cross-linking in parental than in platinum-resistant line
Protocol: as §1, §2, §3, §4, §5, §6

[8] = system: mcp8 cell line; assay: Growth inhibition assay (modified MTT); format: cell-based, human; conditions: five-day MTT
Protocol: (§7) The sensitivities of the cell lines to cisplatinum, carboplatinum, and compounds A-F were determined using a growth inhibition assay which was a modified version of the MTT method (modified version of MTT method described in Appendix B).
(§8) The following is a brief description of the eleven different cell lines used in the growth inhibition assay: • The A2780 cell line (1 in FIGS. 1-9) is a human ovarian cell line which is sensitive to cisplatinum and carboplatinum. […] The cor123/cpr (7) cell line is a modified version of the cor123 cell line which has been modified to be resistant to cisplatinum and carboplatinum. • The ccu24 (8) cell line is an epithelial ovarian cancer cell line, developed at the Christie Hospital from a tumour biopsy, and the ccu24/cpr (9) cell line is a modified version of this cell line which is cisplatinum and carboplatinum resistant. • L1210 (10) is a murine leukemia cell line and L1210/M1140 (11) is its platinum drug resistant subline.
(§9) The cell toxicity studies were performed using a modification of the method MTT.^7 The principle of the assay is to assess the growth inhibitory effect of a drug at various doses over a five-day time course. This assay was performed in 96-well microtitre plates. Cells were seeded at densities of 400-1,000 cells per well, depending on the doubling time of the cell line. All cell dilutions were performed in growth medium containing 10% FCS (foetal calf serum).
(§10) Compounds under investigation were dissolved in DMSO (dimethylsulphoxide). Serial dilutions of compound were made into the cell suspension, ensuring that the proportion of DMSO remained below 0.5%. 200 μl of cells and drug mix was added to the 96-well plates in triplicate. The plates were incubated for five days at 5% CO2 and 37° C. After this time, the plates were removed from the incubator and 50 μl of a 3 mg/ml solution of MTT [3-(4,5-dimethyl-thiazol-2-yl)-2,5-diphenyl tetrazolium bromide] was added to each well and incubated in the same conditions for another 3 hours. The medium from each well was aspirated and the formazan crystals were solubilised in 200 μl of DMSO. The plates were read using a Multiskan platereader at 540 nm and 690 nm. Growth inhibition curves were constructed using mean and standard deviation of the triplicate absorbance values and from these curves the IC50 values were calculated.

[9] = system: ccu24 cell line; assay: Growth inhibition assay (modified MTT); format: cell-based, human; conditions: five-day MTT
Protocol: as §7, §8, §9, §10

[10] = system: cor123 cell line; assay: Growth inhibition assay (modified MTT); format: cell-based, human; conditions: five-day MTT
Protocol: as §7, §8, §9, §10

[11] = system: mcp1 cell line; assay: Growth inhibition assay (modified MTT); format: cell-based, human; conditions: five-day MTT
Protocol: as §7, §8, §9, §10

[12] = system: cor123/cpr cell line; assay: Growth inhibition assay (modified MTT); format: cell-based, human; conditions: five-day MTT
Protocol: as §7, §8, §9, §10

[13] = system: A2780cis cell line; assay: Growth inhibition assay (modified MTT); format: cell-based, human; conditions: A2780cis, five-day MTT
Protocol: as §7, §8, §9, §10

[14] = system: A2780carb cell line; assay: Growth inhibition assay (modified MTT); format: cell-based, human; conditions: A2780carb, five-day MTT
Protocol: as §7, §8, §9, §10

[15] = system: ccu24/cpr cell line; assay: Growth inhibition assay (modified MTT); format: cell-based, human; conditions: five-day MTT
Protocol: as §7, §8, §9, §10

[16] = system: A2780-S cell line; assay: Growth inhibition assay (modified MTT); format: cell-based, human; conditions: five-day MTT
Protocol: as §7, §8, §9, §10

[17] = system: L1210 cell line; assay: Growth inhibition assay (modified MTT); format: cell-based, murine; conditions: five-day MTT
Protocol: as §7, §8, §9, §10

[18] = system: L1210/M1140 cell line; assay: Growth inhibition assay (modified MTT); format: cell-based, murine; conditions: five-day MTT
Protocol: as §7, §8, §9, §10

[19] = Table 1, first series of assays, mcp8
[20] = Table 2, further series of assays, A2780/mcp8
[21] = Table 1, first series of assays
[22] = Table 2, further series of assays
[23] = Table 1, first series of assays, mcp1
[24] = Table 2, further series of assays, A2780/mcp1

Row | Molecule | DNA crosslinking (Comet) ratio [1] | DNA crosslinking (Comet) ratio [2] | DNA crosslinking (Comet) ratio [3] | DNA crosslinking (Comet) ratio [4] | DNA crosslinking (Comet) ratio [5] | DNA crosslinking (Comet) ratio [6] | DNA crosslinking (Comet) ratio [7] | IC50 [8, 19] | IC50 [8, 20] | IC50 [9, 21] | IC50 [9, 22] | IC50 [10, 21] | IC50 [10, 22] | IC50 [11, 23] | IC50 [11, 24] | IC50 [12, 21] | IC50 [12, 22] | IC50 [13, 21] | IC50 [13, 22] | IC50 [14, 21] | other results
1 | c1ccc([PH]([Au][CH2]c2ccc[c]([Au][PH](c3ccccc3)(c3ccccc3)c3ccccc3)c2)(c2ccccc2)c2ccccc2)cc1 [E] | 0.41 | 0.46 | 0.40 | 0.48 | 0.39 | 0.43 | 0.40 | 0.9 nM | 4.7 nM | 10.2 nM | 13.5 nM | 17.7 nM | 21.1 nM | 0.9 nM | 3.9 nM | 1.4 nM | 4.4 nM | 0.4 nM | 0.7 nM | 0.6 nM | IC50 [14, 22]: 0.9 nM; IC50 [15, 21]: 2.4 nM; IC50 [15, 22]: 5.4 nM; IC50 [16, 21]: 8.9 nM; IC50 [16, 22]: 11.2 nM; IC50 [17, 21]: 32.5 nM; IC50 [17, 22]: 35.6 nM; IC50 [18, 21]: 5.3 nM; IC50 [18, 22]: 8.5 nM
2 | c1ccc([PH]([Au][CH2]c2cccc[c]2[Au][PH](c2ccccc2)(c2ccccc2)c2ccccc2)(c2ccccc2)c2ccccc2)cc1 [F] | 0.54 | 0.60 | 0.61 | 0.56 | 0.52 | 0.62 | 0.53 | 5.3 nM | 11.4 nM | 22.1 nM | 26.4 nM | 28.2 nM | 31.1 nM | 6.3 nM | 10.4 nM | 11.4 nM | 14.6 nM | 5.4 nM | 8.3 nM | 7.3 nM | IC50 [14, 22]: 10.4 nM; IC50 [15, 21]: 9.5 nM; IC50 [15, 22]: 12.2 nM; IC50 [16, 21]: 20.4 nM; IC50 [16, 22]: 24.3 nM; IC50 [17, 21]: 28.1 nM; IC50 [17, 22]: 31.2 nM; IC50 [18, 21]: 11.4 nM; IC50 [18, 22]: 14.4 nM
3 | c1ccc([PH]([Au][CH2]c2cc[c]([Au][PH](c3ccccc3)(c3ccccc3)c3ccccc3)cc2)(c2ccccc2)c2ccccc2)cc1 [D] | 0.48 | 0.47 | 0.63 | 0.50 | 0.54 | 0.62 | 0.63 | 6.8 nM | 14.8 nM | 36.4 nM | 39.5 nM | 22.3 nM | 25.4 nM | 8.4 nM | 19.5 nM | 15.7 nM | 19.7 nM | 7.3 nM | 10.2 nM | 10.3 nM | IC50 [14, 22]: 13.5 nM; IC50 [15, 21]: 12.5 nM; IC50 [15, 22]: 15.6 nM; IC50 [16, 21]: 32.4 nM; IC50 [16, 22]: 36.6 nM; IC50 [17, 21]: 48.7 nM; IC50 [17, 22]: 50.3 nM; IC50 [18, 21]: 17.4 nM; IC50 [18, 22]: 20.6 nM
4 | [Au(η2-C6H4CH═NC6H5)Cl2] [Au (III), reference compound] | 0.72 | 0.78 | 0.71 | 0.69 | 0.67 | 0.83 | 0.54 |  |  |  |  |  |  |  |  |  |  |  |  |  | 
5 | c1ccc([PH]([Au][c]2cccc[c]2[Au][PH](c2ccccc2)(c2ccccc2)c2ccccc2)(c2ccccc2)c2ccccc2)cc1 [Compound C] | 0.38 | 0.37 | 0.36 | 0.41 | 0.36 | 0.38 | 0.71 | 0.5 nM | 4.6 nM | 20.2 nM | 23.2 nM | 14.4 nM | 17.6 nM | 0.5 nM | 3.5 nM | 1.4 nM | 4.4 nM | 0.3 nM | 0.6 nM | 0.5 nM | IC50 [14, 22]: 0.8 nM; IC50 [15, 21]: 3.3 nM; IC50 [15, 22]: 6.3 nM; IC50 [16, 21]: 12.8 nM; IC50 [16, 22]: 15.2 nM; IC50 [17, 21]: 42.7 nM; IC50 [17, 22]: 45.8 nM; IC50 [18, 21]: 5.2 nM; IC50 [18, 22]: 8.4 nM
6 | [Au][c]1ccc[c]([Au])c1.c1ccc(P(c2ccccc2)c2ccccc2)cc1.c1ccc(P(c2ccccc2)c2ccccc2)cc1 [B] | 0.40 | 0.39 | 0.37 | 0.39 | 0.36 | 0.38 | 0.47 | 0.4 nM | 5.4 nM | 18.7 nM | 21.8 nM | 12.6 nM | 15.8 nM | 0.4 nM | 3.5 nM | 1.2 nM | 4.3 nM | 0.2 nM | 0.6 nM | 0.4 nM | IC50 [14, 22]: 0.7 nM; IC50 [15, 21]: 2.1 nM; IC50 [15, 22]: 5.1 nM; IC50 [16, 21]: 9.8 nM; IC50 [16, 22]: 12.1 nM; IC50 [17, 21]: 26.6 nM; IC50 [17, 22]: 29.6 nM; IC50 [18, 21]: 4.1 nM; IC50 [18, 22]: 7.2 nM
